Converted amounts (≈) assume the structure as drawn. Read-outs that look alike come from different tables or passages of the source. Ends that are not written are not given here. Peptide text beside a SMILES is read from it.

One assay has as its system A. baumannii. It is filed as cell-based, Acinetobacter baumannii. To be noted: A. baumannii; LB, 30° C., anaerobic, 10^5 CFU/ml. How it is done: (§1) In certain embodiments the MIC assays are performed as described herein in the Examples. For each organism, the media and growth conditions utilized is detailed in Table 8.
(§2) In certain embodiments the MIC assays are performed as follows: For each organism, the media and growth conditions utilized is detailed in Table 8.

In another assay the test system is B. subtilis. In kind it is cell-based, Bacillus subtilis. The method, then:
as §1, §2

A further assay deals with MRSA. It is filed as cell-based, Staphylococcus aureus. How it is done:
as §1, §2

A further assay deals with S. epidermidis. In kind it is cell-based. The method, then: as §1, §2
For the next assay, the system named is T. rubrum. In kind it is cell-based, Trichophyton rubrum. How it is done:
as §1, §2

A further assay concerns C. albicans. In kind it is cell-based, Candida albicans. The method, then: as §1, §2
The test system of another assay is C. difficile. In kind it is cell-based, Clostridium difficile. How it is done: as §1, §2
The next assay concerns P. aeruginosa. It is filed as cell-based, Pseudomonas aeruginosa. To be noted: P. aeruginosa; MH, 37° C., aerobic, 10^5 CFU/ml. How it is done: as §1, §2
Another assay relates to A. niger. In kind it is cell-based, Aspergillus niger. The method, then: as §1, §2
Another assay concerns S. mutans. It is filed as cell-based, Streptococcus mutans. How it is done: as §1, §2
The next assay relates to P. gingivalis. In kind it is cell-based, Porphyromonas gingivalis. The method, then: as §1, §2
For another assay, the system named is A. naeslundii. It is filed as cell-based, Actinomyces naeslundii. How it is done:
as §1, §2

A further assay deals with S. pneumoniae. It is filed as cell-based, Streptococcus pneumoniae. The method, then: as §1, §2
The test system of another assay is E. coli. In kind it is cell-based, Escherichia coli. How it is done: as §1, §2
Where [1] appears, read: MRSA, BHI supplemented with 2% glucose, 37° C., aerobic, 10^5 CFU/ml.

Consider `CC[C@H](C)[C@H](NC(=O)CNC(=O)[C@@H](N)CCSC)C(=O)N[C@H](C(=O)N[C@@H](C)C(=O)NCC(=O)N[C@H](C(=O)N[C@H](C(=O)N[C@@H](CCCCN)C(=O)N[C@@H](Cc1ccccc1)C(=O)N[C@H](C(=O)N[C@@H](CCCCN)C(=O)NCC(=O)N[C@@H](CC(C)C)C(=O)N[C@H](C(=O)N[C@@H](CCC(=O)O)C(=O)N[C@@H](CCCCN)C(=O)N[C@@H](Cc1ccccc1)C(=O)N[C@H](C(=O)NCC(=O)N[C@@H](CCCCN)C(=O)O)[C@@H](C)O)[C@@H](C)CC)[C@@H](C)CC)[C@@H](C)CC)[C@@H](C)CC)[C@@H](C)CC` [PF-006], for which the MIC (commonly the lowest concentration found to suppress growth) is 50 µM (≈ 114 µg/mL) in the assay on A. baumannii; 25 µM (≈ 56.9 µg/mL) with B. subtilis (B. subtilis, BHI, 30° C., aerobic, 10^5 CFU/ml); 50 µM (≈ 114 µg/mL) against MRSA (setting [1]).
As to `CC[C@H](C)[C@H](NC(=O)[C@H](CCCCN)NC(=O)[C@H](C)NC(=O)[C@H](Cc1ccccc1)NC(=O)[C@@H](NC(=O)[C@H](C)NC(=O)[C@H](CC(C)C)NC(=O)[C@H](CO)NC(=O)[C@@H](N)CC(C)C)[C@@H](C)O)C(=O)N[C@@H](Cc1ccccc1)C(=O)N[C@@H](CCSC)C(=O)N[C@H](C(=O)N[C@@H](CCCNC(=N)N)C(=O)N[C@@H](CO)C(=O)N[C@@H](CC(N)=O)C(=O)N[C@@H](Cc1c[nH]c2ccccc12)C(=O)N[C@@H](CO)C(=O)N[C@@H](CC(C)C)C(=O)N[C@@H](CCCCN)C(=O)N[C@@H](CCCNC(=N)N)C(=O)N[C@@H](Cc1ccccc1)C(=O)N[C@@H](CC(N)=O)C(=O)N[C@@H](CCCNC(=N)N)C(=O)N[C@@H](CC(C)C)C(=O)O)[C@@H](C)O` [PF-278] (H-LSLATFAKIFMTRSNWSLKRFNRL-OH; N-terminus and C-terminus assumed), the MIC in the assay with S. epidermidis, in the assay with T. rubrum and against C. albicans was 50 µM in each case.
For `CC[C@H](C)[C@H](NC(=O)[C@H](CO)NC(=O)[C@H](CC(N)=O)NC(=O)[C@H](CCCNC(=N)N)NC(=O)[C@H](CC(N)=O)NC(=O)[C@H](CC(C)C)NC(=O)[C@H](CCCCN)NC(=O)[C@H](CCCCN)NC(=O)[C@H](CCCCN)NC(=O)[C@@H](NC(=O)[C@@H]1CCCN1C(=O)[C@H](CO)NC(=O)[C@H](CCCNC(=N)N)NC(=O)[C@@H](NC(=O)[C@H](CCCNC(=N)N)NC(=O)[C@@H](NC(=O)[C@@H](N)CCSC)[C@@H](C)CC)[C@@H](C)CC)[C@@H](C)O)C(=O)N[C@@H](CO)C(=O)N[C@@H](CC(=O)O)C(=O)N[C@@H](Cc1c[nH]c2ccccc12)C(=O)N[C@@H](CCCCN)C(=O)N[C@@H](CO)C(=O)N[C@@H](CC(N)=O)C(=O)N[C@H](C(=O)N[C@@H](CO)C(=O)NCC(=O)N[C@@H](CCCNC(=N)N)C(=O)N[C@@H](Cc1ccccc1)C(=O)N[C@@H](Cc1ccccc1)C(=O)N[C@@H](Cc1ccc(O)cc1)C(=O)O)[C@@H](C)O` [PF-283] (H-MIRIRSPTKKKLNRNSISDWKSNTSGRFFY-OH; N-terminus and C-terminus assumed), the MIC in the assay with S. epidermidis, in the assay on T. rubrum and against B. subtilis was 50 µM (≈ 182 µg/mL) throughout.
In the assay with C. difficile, `CC[C@H](C)[C@H](NC(=O)[C@H](CCCCN)NC(=O)CNC(=O)[C@H](CC(C)C)NC(=O)[C@H](CC(N)=O)NC(=O)[C@@H](NC(=O)[C@H](CCC(=O)O)NC(=O)[C@H](CC(C)C)NC(=O)[C@H](Cc1c[nH]c2ccccc12)NC(=O)[C@H](CC(=O)O)NC(=O)[C@@H](NC(=O)[C@H](CC(C)C)NC(=O)[C@H](CCC(=O)O)NC(=O)[C@@H](N)Cc1ccccc1)C(C)C)[C@@H](C)O)C(=O)N[C@@H](CC(C)C)C(=O)N[C@@H](CCCCN)C(=O)N[C@@H](CO)C(=O)N[C@@H](CCCCN)C(=O)N[C@@H](CO)C(=O)N[C@@H](C)C(=O)O` [PF-522] (H-FELVDWLETNLGKILKSKSA-OH; N-terminus and C-terminus assumed) displayed an MIC of 25 µM (≈ 57.3 µg/mL).
In the case of `CC[C@H](C)[C@H](NC(=O)[C@H](CCCNC(=N)N)NC(=O)[C@@H](NC(=O)[C@H](CCCCN)NC(=O)[C@H](CCCCN)NC(=O)[C@H](CC(C)C)NC(=O)[C@H](CC(C)C)NC(=O)[C@H](CCCCN)NC(=O)[C@H](CCCNC(=N)N)NC(=O)[C@H](Cc1c[nH]cn1)NC(=O)[C@H](CCCCN)NC(=O)[C@H](CCCCN)NC(=O)[C@H](CCCCN)NC(=O)[C@H](C)NC(=O)[C@H](CCSC)NC(=O)[C@H](CCCNC(=N)N)NC(=O)[C@H](CCCCN)NC(=O)[C@H](CCCNC(=N)N)NC(=O)[C@H](CCCNC(=N)N)NC(=O)[C@H](CCCCN)NC(=O)[C@H](CCCCN)NC(=O)[C@@H](NC(=O)[C@@H](NC(=O)[C@H](CO)NC(=O)CN)C(C)C)[C@@H](C)CC)[C@@H](C)O)C(=O)N[C@@H](CCC(N)=O)C(=O)N[C@@H](CCCNC(=N)N)C(=O)N[C@@H](CCCNC(=N)N)C(=O)N[C@@H](CCCNC(=N)N)C(=O)N[C@@H](C)C(=O)NCC(=O)N[C@@H](CCCCN)C(=O)O` [PF-527] (H-GSVIKKRRKRMAKKKHRKLLKKTRIQRRRAGK-OH; N-terminus and C-terminus assumed), the MIC was 25 µM (≈ 98.5 µg/mL) in the assay on S. epidermidis (S. epidermidis, BHI supplemented with 0.25% glucose, 37° C., aerobic, 10^5 CFU/ml); 25 µM (≈ 98.5 µg/mL) in the assay with T. rubrum (T. rubrum, Potato Dextrose Agar, 25° C., aerobic, 10^5 CFU/ml); 50 µM (≈ 197 µg/mL) against P. aeruginosa; 50 µM (≈ 197 µg/mL) in the assay on MRSA (setting [1]); 50 µM (≈ 197 µg/mL) against A. niger (A. niger, Potato Dextrose Agar, 25° C., aerobic, 10^5 CFU/ml).
As to `CC[C@H](C)[C@H](NC(=O)[C@H](CCCNC(=N)N)NC(=O)[C@H](CCCNC(=N)N)NC(=O)[C@H](CCCNC(=N)N)NC(=O)[C@@H](NC(=O)[C@H](CCSC)NC(=O)[C@H](CC(=O)O)NC(=O)[C@H](C)NC(=O)[C@H](CCSC)NC(=O)[C@H](C)NC(=O)[C@@H](NC(=O)[C@H](CC(C)C)NC(=O)[C@H](CCCCN)NC(=O)[C@H](CO)NC(=O)[C@H](CCC(=O)O)NC(=O)[C@@H](N)CCCNC(=N)N)[C@@H](C)CC)[C@@H](C)CC)C(=O)O` [PF-545] (H-RESKLIAMADMIRRRI-OH; N-terminus and C-terminus assumed), the MIC in the assay on B. subtilis stood at 25 µM (≈ 49 µg/mL); against MRSA, 50 µM (≈ 98 µg/mL); against A. niger it was 50 µM (≈ 98 µg/mL).
For the compound `CC(C)[C@H](NC(=O)[C@H](CCCCN)NC(=O)[C@H](Cc1c[nH]c2ccccc12)NC(=O)CNC(=O)[C@@H](NC(=O)[C@H](CC(=O)O)NC(=O)[C@H](CO)NC(=O)[C@H](Cc1c[nH]cn1)NC(=O)CNC(=O)[C@@H]1CCCN1C(=O)[C@@H](NC(=O)[C@H](CCCNC(=N)N)NC(=O)[C@H](CO)NC(=O)[C@@H](N)Cc1c[nH]c2ccccc12)C(C)C)[C@@H](C)O)C(=O)N[C@@H](Cc1c[nH]c2ccccc12)C(=O)N[C@@H](Cc1c[nH]cn1)C(=O)N[C@@H](CCCNC(=N)N)C(=O)N[C@@H](Cc1c[nH]c2ccccc12)C(=O)O` [PF-547] (H-WSRVPGHSDTGWKVWHRW-OH; N-terminus and C-terminus assumed), the figures for the MIC in the assay with T. rubrum, against B. subtilis and with S. mutans were 25 µM (≈ 56.9 µg/mL), 25 µM (≈ 56.9 µg/mL) and 12.5 µM (≈ 28.5 µg/mL), respectively.
In the case of `CC[C@H](C)[C@H](NC(=O)[C@H](CCCNC(=N)N)NC(=O)[C@@H]1CCCN1C(=O)[C@H](CCC(=O)O)NC(=O)[C@H](CC(C)C)NC(=O)[C@@H]1CCCN1C(=O)[C@H](CC(=O)O)NC(=O)[C@@H](N)CC(C)C)C(=O)N[C@@H](C)C(=O)N1CCC[C@H]1C(=O)N1CCC[C@H]1C(=O)NCC(=O)N[C@@H](CC(=O)O)C(=O)N[C@@H](CCCNC(=N)N)C(=O)N[C@@H](CO)C(=O)N[C@@H](Cc1c[nH]cn1)C(=O)N[C@@H](CCC(N)=O)C(=O)NCC(=O)N[C@@H](C)C(=O)N1CCC[C@H]1C(=O)N[C@@H](C)C(=O)N[C@@H](CS)C(=O)N[C@@H](Cc1c[nH]cn1)C(=O)N[C@@H](CCCNC(=N)N)C(=O)N[C@@H](CC(=O)O)C(=O)N1CCC[C@H]1C(=O)N[C@@H](CC(C)C)C(=O)N[C@@H](CCCNC(=N)N)C(=O)NCC(=O)N[C@@H](CCCNC(=N)N)C(=O)N[C@@H](CO)C(=O)N[C@@H](C)C(=O)N[C@@H](CCCNC(=N)N)C(=O)N[C@@H](CC(=O)O)C(=O)N[C@@H](C)C(=O)N[C@@H](CCC(=O)O)C(=O)N[C@@H](CCCNC(=N)N)C(=O)O` [PF-C019] (H-LDPLEPRIAPPGDRSHQGAPACHRDPLRGRSARDAER-OH; N-terminus and C-terminus assumed), the MIC was 50 µM (≈ 204 µg/mL) in the assay with T. rubrum, 25 µM (≈ 102 µg/mL) with S. mutans and 50 µM (≈ 204 µg/mL) in the assay on A. niger.
`CC(C)[C@H](NC(=O)[C@@H](N)Cc1ccc(O)cc1)C(=O)N[C@@H](CC(N)=O)C(=O)N[C@@H](Cc1ccc(O)cc1)C(=O)N[C@@H](CC(N)=O)C(=O)N[C@@H](CCC(N)=O)C(=O)N[C@@H](CO)C(=O)N[C@@H](Cc1ccccc1)C(=O)N[C@@H](CC(N)=O)C(=O)N[C@@H](CO)C(=O)NCC(=O)N[C@@H](Cc1c[nH]c2ccccc12)C(=O)O` [PF-C220] (H-YVNYNQSFNSGW-OH; N-terminus and C-terminus assumed): the MIC against C. albicans is 50 µM (≈ 73.9 µg/mL).
For “MPVSKKRYMLSSAYATALGICYGQVATDEKESEITAIPDLLDYLSVEEYLL [PF-C163]”, the MIC against S. epidermidis, in the assay with P. gingivalis and in the assay with A. naeslundii was 50 µM in each case.
Turning to “TKKIELKRFVDAFVKKSYENYILERELKKLIKAINEELPTK [PF-600]”, the MIC with S. pneumoniae and with E. coli was 50 µM in each case.

These data come from patent US20100184684A1, “ANTIBACTERIAL AND ANTIFUNGAL PEPTIDES” (C3 JIAN, INC., priority 2009, published 2010).
